TGI and GI50 data for 13 compounds are collected here from PubChem BioAssay (NCI).

Among the test systems are HT29 colon; K-562 leukemia; SK-MEL-28 melanoma; ACHN renal; OVCAR-5 ovarian; SN12C renal; EKVX NSCLC; HL-60(TB) leukemia; SR leukemia; NCI-H522 lung.
What all share (assay): DTP human tumour cell line panel, 48 h

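All cell lines were grown in 96-well plates and treated with compound for 48 hours. GI50 marks 50% less growth. TGI: total growth inhibition.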

`Cc1ccc(C2=NO[C@@H]3C(=O)N(c4ccc(Cc5ccc(N6C(=O)[C@H]7C(c8ccc(C)cc8)=NO[C@H]7C6=O)cc5)cc4)C(=O)[C@H]23)cc1`: the TGI in the experiment with HT29 colon, in the experiment on K-562 leukemia, with SK-MEL-28 melanoma, with ACHN renal, with OVCAR-5 ovarian and with SN12C renal was greater than 100 µM in each case. Also, the TGI with EKVX NSCLC and in the experiment on HL-60(TB) leukemia was greater than 100 µM each time.
Take `CC1C(=O)N(C)C2(CO)C(=O)O[C@H](C)C12O` (some centres undefined): the TGI in the experiment on HT29 colon, with K-562 leukemia, in the experiment with SK-MEL-28 melanoma, in the experiment on OVCAR-5 ovarian, in the experiment with SR leukemia and in the experiment on EKVX NSCLC was greater than 100 µM each time.
Take `O=C(O)/C(Cl)=C(\Cl)C(=O)Nc1ccccc1`: the TGI in the experiment on HT29 colon, in the experiment with K-562 leukemia, with SK-MEL-28 melanoma, in the experiment with ACHN renal, with OVCAR-5 ovarian and in the experiment on SN12C renal was greater than 100 µM throughout. Also, the TGI in the experiment on SR leukemia and with EKVX NSCLC was greater than 100 µM throughout.
Consider `COC(=O)C(=O)C(C(=O)C(=O)Nc1cc([N+](=O)[O-])ccc1[N+](=O)[O-])c1nc2ccc(C(=O)c3ccccc3)cc2[nH]c1=O` (centres undefined), for which the TGI with HT29 colon is greater than 100 µM; with K-562 leukemia, 91.3 µM; in the experiment with NCI-H522 lung it was 70.6 µM; in the experiment on ACHN renal it was greater than 100 µM; in the experiment on OVCAR-5 ovarian, 70.5 µM; in the experiment on SN12C renal, greater than 100 µM. The TGI with SR leukemia is 60.2 µM; in the experiment on EKVX NSCLC, greater than 100 µM.
As for `COc1ccc(Nc2ccnc(NCCCNc3ccnc4cc(Cl)ccc34)n2)cc1`, the GI50 in the experiment on HT29 colon is 0.393 µM; with NCI-H522 lung it was 1.62 µM; with SK-MEL-28 melanoma it was 0.434 µM; in the experiment with ACHN renal it was 1180 nM; with OVCAR-5 ovarian, 1.16 µM; in the experiment with SN12C renal, 1590 nM. Also, the GI50 was 254 nM in the experiment on SR leukemia and 1.59 µM in the experiment on HL-60(TB) leukemia. The TGI with HT29 colon is 2.2 µM; with NCI-H522 lung, 3.67 µM; in the experiment with SK-MEL-28 melanoma it was 1.66 µM; with ACHN renal, 2.42 µM; in the experiment on OVCAR-5 ovarian, 3.73 µM; in the experiment with SN12C renal, 8.94 µM. Besides, the TGI in the experiment with SR leukemia was 0.912 µM; with HL-60(TB) leukemia, 4.1 µM.
For `CC[C@H](C)C(=O)O[C@H]1CCC=C2C=C[C@H](C)C(CCC3C[C@@H](O)CC(=O)O3)[C@H]21` (some centres undefined), the GI50 is 29 µM with HT29 colon; 84.9 µM in the experiment with SK-MEL-28 melanoma; 1700 nM in the experiment with ACHN renal; 20.8 µM in the experiment with OVCAR-5 ovarian; 3500 nM in the experiment with SN12C renal; 12.5 µM in the experiment with EKVX NSCLC. Moreover, the GI50 in the experiment with HL-60(TB) leukemia was 11.7 µM. The concentration for total growth inhibition (TGI) with HT29 colon, in the experiment on SK-MEL-28 melanoma, in the experiment with ACHN renal, in the experiment on OVCAR-5 ovarian, with SN12C renal and in the experiment with EKVX NSCLC was greater than 100 µM in each case. The same compound had a total growth inhibition concentration (TGI) in the experiment on HL-60(TB) leukemia of 52.9 µM.
Turning to `COC1CC2CCC(C)[C@](O)(O2)C(=O)C(=O)N2CCCCC2C(=O)OC(C(C)CC2CCC(O)C(OC)C2)CC(=O)C(C)C=C(C)C(OC(=O)CN(C)C)C(OC)C(=O)C(C)CC(C)/C=C/C=C/C=C\1C` (some centres undefined), the TGI in the experiment with HT29 colon was determined as 20.2 µM; in the experiment on K-562 leukemia, 13.6 µM; in the experiment with NCI-H522 lung, 22.6 µM; with SK-MEL-28 melanoma, 20.7 µM; in the experiment with ACHN renal it was 19.6 µM; in the experiment with OVCAR-5 ovarian, 26.4 µM. Moreover, the TGI in the experiment on SN12C renal came out at 18.7 µM; with EKVX NSCLC, 20.3 µM; in the experiment on HL-60(TB) leukemia, 6.38 µM.
Take `CC(C)(O)[C@H]1[C@@H]2OC(=O)[C@H]1[C@]1(O)C[C@H]3OC34C(=O)O[C@H]2[C@@]41C` (some centres undefined) (tested in a mixture with another compound): the TGI in the experiment on HT29 colon, in the experiment with K-562 leukemia, in the experiment with NCI-H522 lung, with SK-MEL-28 melanoma, with ACHN renal and in the experiment with OVCAR-5 ovarian was greater than 100 µM in each case. The TGI in the experiment with SN12C renal, in the experiment with EKVX NSCLC and in the experiment on HL-60(TB) leukemia was greater than 100 µM throughout.
Take `CCN(CC)CCOc1cc2c(C(=O)OC)c(C)oc2cc1C(C)=O`: the GI50 is 17 µM in the experiment on HT29 colon; 4.7 µM with K-562 leukemia; 13.2 µM in the experiment with NCI-H522 lung; 5650 nM in the experiment with ACHN renal; 15.4 µM with OVCAR-5 ovarian; 1640 nM in the experiment with SN12C renal. Moreover, the GI50 in the experiment on SR leukemia was 2580 nM; in the experiment on EKVX NSCLC, 8.75 µM. The TGI in the experiment with HT29 colon was 94.9 µM; in the experiment on K-562 leukemia, 29.2 µM; in the experiment on NCI-H522 lung, greater than 100 µM; with ACHN renal it was 18.3 µM; in the experiment with OVCAR-5 ovarian it was 29.1 µM; in the experiment with SN12C renal, 6.54 µM. In addition, the concentration for total growth inhibition (TGI) came out at 6.72 µM with SR leukemia and 22.1 µM in the experiment on EKVX NSCLC.
`ON(CCc1ccccn1)Cc1ccccc1`: the total growth inhibition concentration (TGI) with HT29 colon, in the experiment on K-562 leukemia, in the experiment on NCI-H522 lung, with SK-MEL-28 melanoma, in the experiment with ACHN renal and with OVCAR-5 ovarian was greater than 100 µM throughout. The TGI in the experiment with SN12C renal, with SR leukemia and in the experiment on EKVX NSCLC was greater than 100 µM in each case.
In the case of `O=C1c2ccccc2C(=O)c2nc(-c3ccccc3)c(-c3ccccc3)nc21`, the TGI with HT29 colon, in the experiment on K-562 leukemia, in the experiment with NCI-H522 lung, in the experiment on SK-MEL-28 melanoma, with ACHN renal and in the experiment on OVCAR-5 ovarian was greater than 100 µM in each case. In addition, the TGI in the experiment on SN12C renal and with EKVX NSCLC was greater than 100 µM in each case.
With `CC12CC3CC(C)(C1)CC(N=[N+]=[N-])(C3)C2`, the TGI in the experiment on HT29 colon, in the experiment with K-562 leukemia, in the experiment with NCI-H522 lung, with SK-MEL-28 melanoma, in the experiment on ACHN renal and in the experiment on OVCAR-5 ovarian was greater than 100 µM in each case. Also, the TGI in the experiment on SN12C renal, in the experiment with SR leukemia and in the experiment with EKVX NSCLC was greater than 100 µM throughout.
In the case of `CNC1C(O)CC(OC2C/C=C(\C)C/C(C)=C/C=C/CCC(C)CNC(=O)/C=C/C=C/C2C)OC1C` (centres undefined), the TGI turned out to be 0.504 µM in the experiment with HT29 colon; 0.184 µM with K-562 leukemia; 2.81 µM in the experiment with NCI-H522 lung; 2.97 µM in the experiment with SK-MEL-28 melanoma; 2.85 µM in the experiment with ACHN renal; 2.53 µM with OVCAR-5 ovarian. Also, the TGI in the experiment on SN12C renal was determined as 1.94 µM; in the experiment on EKVX NSCLC, 3 µM; in the experiment on HL-60(TB) leukemia it was 0.37 µM.

Broadly, the TGI is the concentration giving total growth inhibition. A high value points to less potent growth arrest. In general, GI50 refers to the concentration giving 50% growth inhibition.
